From the NIST ThermoML archive (doi:10.1016/j.jct.2009.02.008)
Values joined by “and” are separate entries in the source; they are usually repeats but may differ in a detail not shown here. Identical values can stand only once.

What was measured:
[1] = Molar enthalpy of transition or fusion; details: Crystal; DSC
[2] = for vapor or sublimation pressure: Torsion effusion method; for Normal melting temperature: DTA

O=C(O)c1ccc([N+](=O)[O-])cc1[N+](=O)[O-] [2,4-dinitrobenzoic acid]
Details	Molar enthalpy of transition or fusion [kcal/mol]
[1]	7.31

[2]
Details	vapor or sublimation pressure
363.5 K, Crystal	3e-05 kPa
370 K, Crystal	6e-05 kPa
373 K, Crystal	9e-05 kPa
375 K, Crystal	0.000105 kPa
377 K, Crystal	0.00015 kPa
377.5 K, Crystal	0.00015 kPa
379 K, Crystal	0.000195 kPa
381 K, Crystal	0.00024 kPa
381.5 K, Crystal	0.00024 kPa
385 K, Crystal	0.00033 kPa
388.5 K, Crystal	0.000511 kPa and 0.000541 kPa
389 K, Crystal	0.00048 kPa and 0.000541 kPa
391 K, Crystal	0.000601 kPa and 0.000631 kPa and 0.000691 kPa
393 K, Crystal	0.000781 kPa
393.5 K, Crystal	0.000901 kPa
394 K, Crystal	0.000871 kPa
396.5 K, Crystal	0.001141 kPa
397 K, Crystal	0.001141 kPa
399 K, Crystal	0.001351 kPa and 0.001502 kPa
399.5 K, Crystal	0.001622 kPa
400 K, Crystal	0.001622 kPa
401.5 K, Crystal	0.001952 kPa
402 K, Crystal	0.001862 kPa
402.5 K, Crystal	0.001922 kPa
494.3 K, Liquid	0.85 kPa
494.4 K, Liquid	0.85 kPa
494.5 K, Liquid	0.851 kPa
494.7 K, Liquid	0.85 kPa
495.6 K, Liquid	0.874 kPa
495.7 K, Liquid	0.883 kPa
495.8 K, Liquid	0.879 kPa
495.9 K, Liquid	0.884 kPa
500.6 K, Liquid	1.05 kPa and 1.065 kPa
500.8 K, Liquid	1.051 kPa and 1.058 kPa
501.1 K, Liquid	1.047 kPa
501.2 K, Liquid	1.016 kPa and 1.046 kPa and 1.048 kPa
501.5 K, Liquid	1.06 kPa
502.4 K, Liquid	1.13 kPa
503.2 K, Liquid	1.259 kPa
504.4 K, Liquid	1.202 kPa
505.3 K, Liquid	1.309 kPa
506.2 K, Liquid	1.299 kPa
507.1 K, Liquid	1.451 kPa
507.2 K, Liquid	1.464 kPa
507.4 K, Liquid	1.458 kPa
507.5 K, Liquid	1.475 kPa
508.1 K, Liquid	1.511 kPa
508.2 K, Liquid	1.484 kPa and 1.513 kPa
508.3 K, Liquid	1.516 kPa
508.5 K, Liquid	1.513 kPa
510.3 K, Liquid	1.607 kPa
511.4 K, Liquid	1.647 kPa
511.5 K, Liquid	1.909 kPa
512.3 K, Liquid	1.785 kPa
512.8 K, Liquid	1.798 kPa and 1.814 kPa and 1.816 kPa
512.9 K, Liquid	1.849 kPa [middle of 4 runs]
513 K, Liquid	1.814 kPa
513.2 K, Liquid	1.704 kPa
514.4 K, Liquid	1.9 kPa
515.2 K, Liquid	1.995 kPa
516.4 K, Liquid	1.952 kPa
517.2 K, Liquid	2.293 kPa and 2.389 kPa and 2.212 kPa
517.3 K, Liquid	2.207 kPa and 2.212 kPa
518.4 K, Liquid	2.196 kPa
519.3 K, Liquid	2.153 kPa
520.2 K, Liquid	2.466 kPa
521.4 K, Liquid	2.522 kPa
522.3 K, Liquid	2.494 kPa
523 K, Liquid	2.741 kPa
523.1 K, Liquid	2.703 kPa and 2.754 kPa
523.2 K, Liquid	2.768 kPa
523.3 K, Liquid	2.731 kPa
524.3 K, Liquid	2.997 kPa
526.3 K, Liquid	3.049 kPa
527.2 K, Liquid	3.107 kPa
528.4 K, Liquid	3.467 kPa
528.9 K, Liquid	3.528 kPa and 3.623 kPa and 3.453 kPa
529 K, Liquid	3.447 kPa
529.2 K, Liquid	3.297 kPa
530.4 K, Liquid	3.895 kPa
531.2 K, Liquid	3.694 kPa
531.3 K, Liquid	3.86 kPa and 3.894 kPa
531.4 K, Liquid	3.865 kPa
531.5 K, Liquid	3.847 kPa
532.2 K, Liquid	3.786 kPa
533.4 K, Liquid	4.205 kPa
534.2 K, Liquid	4.308 kPa and 3.936 kPa and 4.141 kPa
534.4 K, Liquid	4.173 kPa and 4.085 kPa
535.4 K, Liquid	4.593 kPa
536.3 K, Liquid	4.615 kPa
537.3 K, Liquid	4.715 kPa and 4.48 kPa
537.4 K, Liquid	4.808 kPa and 4.815 kPa
537.5 K, Liquid	4.648 kPa
538.2 K, Liquid	4.909 kPa
539.2 K, Liquid	5.258 kPa and 5.485 kPa and 5.433 kPa
539.3 K, Liquid	5.693 kPa
539.4 K, Liquid	4.999 kPa
540.3 K, Liquid	5.053 kPa
541.2 K, Liquid	5.592 kPa
543.3 K, Liquid	5.789 kPa
544.2 K, Liquid	5.62 kPa

Details	Normal melting temperature [°C]
[2], Crystal	182.7

O=C(O)c1ccc([N+](=O)[O-])c([N+](=O)[O-])c1 [3,4-dinitrobenzoic acid]
Details	Molar enthalpy of transition or fusion [kcal/mol]
[1]	5.88

[2]
Details	vapor or sublimation pressure
366 K, Crystal	6e-05 kPa
367 K, Crystal	7.5e-05 kPa
368 K, Crystal	7.5e-05 kPa
369 K, Crystal	9e-05 kPa
370 K, Crystal	0.000105 kPa
370.5 K, Crystal	0.000105 kPa
373 K, Crystal	0.00015 kPa
373.5 K, Crystal	0.00015 kPa
374 K, Crystal	0.00015 kPa
374.5 K, Crystal	0.00015 kPa
376 K, Crystal	0.00018 kPa
378 K, Crystal	0.00024 kPa
379 K, Crystal	0.00027 kPa
380 K, Crystal	0.00027 kPa
382 K, Crystal	0.00039 kPa and 0.00036 kPa
383 K, Crystal	0.00039 kPa
383.5 K, Crystal	0.00039 kPa
384.5 K, Crystal	0.00048 kPa
385 K, Crystal	0.000511 kPa
386.5 K, Crystal	0.000541 kPa
387 K, Crystal	0.000571 kPa
387.5 K, Crystal	0.000631 kPa
390.5 K, Crystal	0.000841 kPa
391.5 K, Crystal	0.000901 kPa
392 K, Crystal	0.000991 kPa
393 K, Crystal	0.001171 kPa
393.5 K, Crystal	0.001111 kPa
396 K, Crystal	0.001502 kPa and 0.001441 kPa
396.5 K, Crystal	0.001622 kPa
397 K, Crystal	0.001652 kPa
398.5 K, Crystal	0.001862 kPa
399.3 K, Crystal	0.001952 kPa
504.2 K, Liquid	1.398 kPa
506.3 K, Liquid	1.467 kPa and 1.527 kPa
508.1 K, Liquid	1.661 kPa
509.3 K, Liquid	1.686 kPa and 1.713 kPa
510.3 K, Liquid	1.855 kPa
511.2 K, Liquid	1.855 kPa
512.2 K, Liquid	2.062 kPa and 1.928 kPa
512.6 K, Liquid	2.021 kPa
513.3 K, Liquid	2.078 kPa
514 K, Liquid	2.144 kPa
514.2 K, Liquid	2.189 kPa
514.5 K, Liquid	2.164 kPa
515.2 K, Liquid	2.237 kPa
516.3 K, Liquid	2.326 kPa and 2.215 kPa
517.3 K, Liquid	2.424 kPa
517.4 K, Liquid	2.494 kPa
517.5 K, Liquid	2.396 kPa
518.2 K, Liquid	2.524 kPa and 2.484 kPa
518.3 K, Liquid	2.448 kPa
519.1 K, Liquid	2.585 kPa
519.3 K, Liquid	2.646 kPa
519.5 K, Liquid	2.554 kPa
520 K, Liquid	2.619 kPa
520.2 K, Liquid	2.672 kPa and 2.772 kPa and 2.726 kPa
521.2 K, Liquid	2.916 kPa
521.3 K, Liquid	2.807 kPa
521.7 K, Liquid	2.815 kPa
522.1 K, Liquid	2.909 kPa and 2.971 kPa
522.2 K, Liquid	2.978 kPa
523.1 K, Liquid	3.104 kPa
523.3 K, Liquid	3.095 kPa and 3.121 kPa
523.5 K, Liquid	3.122 kPa
524.1 K, Liquid	3.125 kPa
524.2 K, Liquid	3.059 kPa and 3.181 kPa
524.4 K, Liquid	3.199 kPa
525 K, Liquid	3.353 kPa
525.2 K, Liquid	3.39 kPa
525.5 K, Liquid	3.335 kPa
526 K, Liquid	3.494 kPa
526.3 K, Liquid	3.406 kPa and 3.328 kPa and 3.288 kPa
526.5 K, Liquid	3.316 kPa
527.1 K, Liquid	3.585 kPa
527.3 K, Liquid	3.551 kPa and 3.644 kPa
528.1 K, Liquid	3.726 kPa and 3.627 kPa
528.2 K, Liquid	3.635 kPa
528.3 K, Liquid	3.831 kPa
529.2 K, Liquid	3.887 kPa
529.4 K, Liquid	3.764 kPa
529.6 K, Liquid	3.879 kPa and 3.918 kPa
530.1 K, Liquid	3.984 kPa
530.3 K, Liquid	4.036 kPa and 4.045 kPa
531 K, Liquid	4.159 kPa
531.3 K, Liquid	4.262 kPa and 4.216 kPa
532.2 K, Liquid	4.348 kPa [middle of 4 runs]
533.2 K, Liquid	4.481 kPa
533.3 K, Liquid	4.576 kPa and 4.47 kPa
534.3 K, Liquid	4.611 kPa and 4.532 kPa
535.4 K, Liquid	4.812 kPa
535.7 K, Liquid	4.867 kPa
536.2 K, Liquid	4.889 kPa
536.5 K, Liquid	4.992 kPa
537.3 K, Liquid	5.217 kPa
538.3 K, Liquid	5.356 kPa
539.3 K, Liquid	5.685 kPa
540.6 K, Liquid	5.862 kPa

Details	Normal melting temperature [°C]
[2], Crystal	165.1
